In US20080275058A1, “N-Substituted-1H-Quinoline-2,4-Diones, Preparation Method Thereof, And Pharmaceutical Composition Containing The Same” (KOREA RESEARCH INSTITUTE OF CHEMICAL TECHNOLOGY, priority 2005, published 2008):
Like-named read-outs stand apart in the source and are kept apart here.

Experiments:
[1] = molecular target: T1, hD2L (Homo sapiens, UniProt P14416); experiment: Radioligand binding, dopamine D2 ([3H]spiperone); conditions: Table 4; [3H]spiperone 1 nM; read-out: Binding affinity, IC50 (nM) D2
T1 construct: purchased BioSignal Packard Inc., Montreal, Canada
T1 sequence (P14416 whole entry): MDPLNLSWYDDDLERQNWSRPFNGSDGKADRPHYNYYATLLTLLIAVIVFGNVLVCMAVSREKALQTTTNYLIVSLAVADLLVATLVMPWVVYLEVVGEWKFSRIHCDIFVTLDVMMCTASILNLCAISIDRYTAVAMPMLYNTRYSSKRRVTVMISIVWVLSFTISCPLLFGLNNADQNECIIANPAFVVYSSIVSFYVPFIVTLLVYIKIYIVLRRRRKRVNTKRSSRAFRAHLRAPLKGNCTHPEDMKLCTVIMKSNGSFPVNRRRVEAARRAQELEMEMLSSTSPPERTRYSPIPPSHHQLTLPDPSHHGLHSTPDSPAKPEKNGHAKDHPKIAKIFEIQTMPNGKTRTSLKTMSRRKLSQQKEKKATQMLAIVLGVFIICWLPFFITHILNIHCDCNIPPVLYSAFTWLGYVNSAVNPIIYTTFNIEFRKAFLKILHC
Protocol: (§1) 2-2: Binding assays of Dopamine Receptor Family
(§2) The radioligands used were [^3H] spiperone (for hD2L and hD3 receptors, 1 nM) and [^3H] YM-09151-2 (for hD4.2 receptor, 0.06 nM). Radioligand bindings were performed by the protocols provided by the supplier of receptor membranes (BioSignal Packard Inc., Montreal, Canada). Briefly, the buffer used in D2 or D3 receptor binding assay was 50 mM Tris-HCl (pH 7.4), 10 mM MgCl2, 1 mM EDTA, or 50 mM Tris-HCl (pH 7.4), 5 mM MgCl2, 5 mM EDTA, 5 mM KCl, 1.5 mM CaCl2, 120 mM NaCl, respectively. In [^3H] YM-09151-2 receptor binding assays, the buffer containing 50 mM Tris-HCl (pH 7.4), 5 mM MgCl2, 5 mM EDTA, 5 mM KCl and 1.5 mM CaCl2 was used. […] Competition binding studies were carried out with 7-8 concentrations of the test compound run in duplicate tubes, and isotherms from three assays were calculated by computerized nonlinear regression analysis (GraphPad Prism Program, San Diego, […]) to yield median inhibitory concentration (IC50) values.

[2] = molecular target: T2, 5-HT1a (Homo sapiens, UniProt P08908); experiment: Radioligand binding, 5-HT1a ([3H]8-OH-DPAT); conditions: Table 4; [3H]8-OH-DPAT 0.5 nM; read-out: Binding affinity, IC50 (nM) 5-HT1a
T2 construct: purchased Euroscreen/BioSignal Packard Inc
T2 sequence (P08908 1-422): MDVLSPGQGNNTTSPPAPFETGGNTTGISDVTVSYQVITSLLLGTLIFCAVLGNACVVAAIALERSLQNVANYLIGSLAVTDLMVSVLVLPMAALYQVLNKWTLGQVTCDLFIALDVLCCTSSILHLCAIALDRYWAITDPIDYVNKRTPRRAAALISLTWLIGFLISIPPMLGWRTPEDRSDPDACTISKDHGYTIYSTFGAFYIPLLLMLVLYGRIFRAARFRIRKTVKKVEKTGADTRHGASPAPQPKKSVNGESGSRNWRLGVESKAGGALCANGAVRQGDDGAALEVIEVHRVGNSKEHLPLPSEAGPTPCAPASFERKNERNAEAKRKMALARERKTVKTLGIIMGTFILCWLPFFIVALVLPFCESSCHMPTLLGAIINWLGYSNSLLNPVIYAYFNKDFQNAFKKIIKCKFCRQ
Protocol: Radioligand bindings were performed according to the test method provided by the supplier of receptor membrane (Euroscreen/BioSignal Packard Inc.). The detailed assay conditions and the results were shown in the following Table 3 and Table 4, respectively.

[3] = molecular target: T3, 5-HT2a (Homo sapiens, UniProt P28223); experiment: Radioligand binding, 5-HT2a ([3H]Ketanserin); conditions: Table 4; [3H]Ketanserin 1 nM; read-out: Binding affinity, IC50 (nM) 5-HT2a
T3 construct: purchased Euroscreen/BioSignal Packard Inc
T3 sequence (P28223 whole entry): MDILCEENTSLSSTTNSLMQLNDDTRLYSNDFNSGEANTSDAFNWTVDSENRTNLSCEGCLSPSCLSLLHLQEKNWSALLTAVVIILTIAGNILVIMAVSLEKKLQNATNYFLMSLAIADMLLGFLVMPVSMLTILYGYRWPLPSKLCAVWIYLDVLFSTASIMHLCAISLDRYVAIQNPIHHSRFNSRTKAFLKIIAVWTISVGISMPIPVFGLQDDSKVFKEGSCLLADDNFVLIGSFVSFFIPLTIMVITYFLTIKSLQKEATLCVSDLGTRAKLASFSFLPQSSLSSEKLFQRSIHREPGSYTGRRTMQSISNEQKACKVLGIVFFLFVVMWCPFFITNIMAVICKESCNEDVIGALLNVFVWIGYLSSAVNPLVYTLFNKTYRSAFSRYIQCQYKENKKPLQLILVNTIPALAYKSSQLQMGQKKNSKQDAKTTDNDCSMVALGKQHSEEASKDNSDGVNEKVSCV

[4] = molecular target: T4, Human serotonin 5-HT6 receptor (Homo sapiens, UniProt P50406); experiment: [3H]LSD binding assay on cloned 5-HT6 receptor membranes
T4 construct: made in house; host or cells: insect Sf21 cells (baculovirus vector BacPAK8)
T4 sequence (P50406 whole entry): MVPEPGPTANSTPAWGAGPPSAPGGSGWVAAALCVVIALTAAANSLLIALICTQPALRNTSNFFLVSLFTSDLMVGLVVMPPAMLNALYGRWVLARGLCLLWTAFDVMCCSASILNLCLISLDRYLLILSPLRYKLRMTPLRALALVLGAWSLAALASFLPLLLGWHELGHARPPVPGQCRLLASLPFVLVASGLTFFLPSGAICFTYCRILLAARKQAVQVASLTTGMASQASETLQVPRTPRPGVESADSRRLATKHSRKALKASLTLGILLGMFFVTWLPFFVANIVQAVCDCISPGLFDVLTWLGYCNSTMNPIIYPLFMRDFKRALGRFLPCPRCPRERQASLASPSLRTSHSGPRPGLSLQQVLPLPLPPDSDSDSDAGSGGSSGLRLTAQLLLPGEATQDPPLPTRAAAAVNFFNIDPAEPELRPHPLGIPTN

[5] = molecular target: T5, hD4.2 receptor (Homo sapiens, UniProt P21917, DEL265-296); experiment: Radioligand binding, dopamine D4 ([3H]YM-09151-2); conditions: Table 4; [3H]YM-09151-2 0.06 nM; read-out: Binding affinity, IC50 (nM) D4
T5 construct: purchased BioSignal Packard Inc., Montreal, Canada
T5 sequence (P21917 with tags, fused parts or gaps DEL265-296): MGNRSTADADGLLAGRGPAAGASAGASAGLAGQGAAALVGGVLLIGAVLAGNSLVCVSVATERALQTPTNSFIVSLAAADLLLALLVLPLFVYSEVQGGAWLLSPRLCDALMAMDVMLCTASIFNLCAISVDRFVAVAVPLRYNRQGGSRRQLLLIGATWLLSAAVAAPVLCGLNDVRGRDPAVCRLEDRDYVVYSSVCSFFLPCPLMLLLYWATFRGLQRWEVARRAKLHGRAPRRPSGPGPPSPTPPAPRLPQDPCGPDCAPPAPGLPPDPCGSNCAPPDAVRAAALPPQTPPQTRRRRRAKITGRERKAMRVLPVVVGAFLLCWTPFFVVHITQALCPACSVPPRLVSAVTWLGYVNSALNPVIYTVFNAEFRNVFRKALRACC
Protocol: as §1, §2

[6] = molecular target: D1 (Homo sapiens, UniProt P21728); experiment: Radioligand binding, dopamine D1; conditions: Table 4; read-out: Binding affinity, IC50 (nM) D1
Sequence of D1 (P21728 whole entry): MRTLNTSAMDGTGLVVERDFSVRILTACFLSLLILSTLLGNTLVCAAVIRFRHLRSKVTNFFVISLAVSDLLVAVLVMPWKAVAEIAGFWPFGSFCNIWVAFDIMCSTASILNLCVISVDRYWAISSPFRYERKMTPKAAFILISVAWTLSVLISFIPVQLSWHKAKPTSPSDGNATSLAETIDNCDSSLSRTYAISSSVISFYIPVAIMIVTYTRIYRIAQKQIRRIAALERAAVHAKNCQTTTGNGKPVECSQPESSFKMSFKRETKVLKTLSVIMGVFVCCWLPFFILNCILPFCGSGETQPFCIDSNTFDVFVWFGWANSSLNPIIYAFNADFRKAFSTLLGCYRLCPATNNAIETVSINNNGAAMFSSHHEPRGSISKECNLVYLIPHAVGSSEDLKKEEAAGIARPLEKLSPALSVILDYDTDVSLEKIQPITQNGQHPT

[7] = molecular target: T6, hD3 (Homo sapiens, UniProt P35462); experiment: Radioligand binding, dopamine D3 ([3H]spiperone); conditions: Table 4; [3H]spiperone 1 nM; read-out: Binding affinity, IC50 (nM) D3
T6 construct: purchased BioSignal Packard Inc., Montreal, Canada
T6 sequence (P35462 whole entry): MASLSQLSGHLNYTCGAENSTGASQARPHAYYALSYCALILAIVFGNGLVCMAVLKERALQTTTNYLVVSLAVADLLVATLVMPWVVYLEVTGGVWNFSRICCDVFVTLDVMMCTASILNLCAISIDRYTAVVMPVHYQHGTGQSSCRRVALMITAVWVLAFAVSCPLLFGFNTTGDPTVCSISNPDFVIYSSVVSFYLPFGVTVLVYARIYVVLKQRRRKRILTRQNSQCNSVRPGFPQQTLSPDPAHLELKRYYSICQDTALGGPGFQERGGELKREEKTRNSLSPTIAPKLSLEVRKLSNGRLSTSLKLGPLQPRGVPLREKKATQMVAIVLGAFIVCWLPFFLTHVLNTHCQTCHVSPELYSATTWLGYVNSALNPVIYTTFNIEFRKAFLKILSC
Protocol: as §1, §2

[8] = molecular target: T7, 5-HT7 (Homo sapiens, UniProt P34969); experiment: Radioligand binding, 5-HT7 ([3H]LSD); conditions: Table 4; [3H]LSD 3 nM; read-out: Binding affinity, IC50 (nM) 5-HT7
T7 construct: purchased Euroscreen/BioSignal Packard Inc
T7 sequence (P34969 whole entry): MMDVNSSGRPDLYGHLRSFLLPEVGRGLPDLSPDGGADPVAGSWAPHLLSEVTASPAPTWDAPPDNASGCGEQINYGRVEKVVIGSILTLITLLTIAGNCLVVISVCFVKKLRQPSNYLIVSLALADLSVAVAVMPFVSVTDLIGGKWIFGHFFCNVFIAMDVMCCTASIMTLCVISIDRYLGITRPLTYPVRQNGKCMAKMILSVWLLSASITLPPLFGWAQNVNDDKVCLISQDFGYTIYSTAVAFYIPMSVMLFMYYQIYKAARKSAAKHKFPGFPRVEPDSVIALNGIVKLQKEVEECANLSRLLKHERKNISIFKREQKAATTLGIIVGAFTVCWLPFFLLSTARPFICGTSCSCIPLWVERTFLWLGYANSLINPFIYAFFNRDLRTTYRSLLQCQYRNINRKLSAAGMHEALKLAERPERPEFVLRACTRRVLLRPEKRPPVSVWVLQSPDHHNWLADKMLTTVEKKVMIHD

[9] = molecular target: T8, 5-HT2c (Homo sapiens, UniProt P28335); experiment: Radioligand binding, 5-HT2c ([3H]Mesulergine); conditions: Table 4; [3H]Mesulergine 1 nM; read-out: Binding affinity, IC50 (nM) 5-HT2c
T8 construct: purchased Euroscreen/BioSignal Packard Inc
T8 sequence (P28335 33-458): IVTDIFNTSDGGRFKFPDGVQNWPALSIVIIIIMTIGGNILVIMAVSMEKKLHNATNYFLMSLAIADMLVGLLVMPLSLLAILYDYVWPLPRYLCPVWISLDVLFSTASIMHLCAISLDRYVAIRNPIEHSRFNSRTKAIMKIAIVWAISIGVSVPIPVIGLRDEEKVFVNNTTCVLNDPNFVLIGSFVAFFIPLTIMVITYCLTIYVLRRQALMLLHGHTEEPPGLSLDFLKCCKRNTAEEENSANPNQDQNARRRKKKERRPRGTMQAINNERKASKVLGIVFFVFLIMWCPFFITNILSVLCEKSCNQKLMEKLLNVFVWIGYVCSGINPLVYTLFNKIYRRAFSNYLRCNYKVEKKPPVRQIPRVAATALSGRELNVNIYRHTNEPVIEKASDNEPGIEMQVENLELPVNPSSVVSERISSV

[10] = Table 2, 1.87 nM [3H]LSD, 37 C, 60 min, read-out: IC50 (nM), binding affinity to the 5-HT6 receptor
[11] = Table 4, read-out: Binding affinity, IC50 (nM) 5-HT6

Structure (SMILES)	melting point [°C]	IC50 [1] [nM]	IC50 [2] [nM]	IC50 [3] [nM]	IC50 [4, 10] [nM]	IC50 [4, 11] [nM]	IC50 [5] [nM]	IC50 [6] [nM]	IC50 [7] [nM]	IC50 [8] [nM]	IC50 [9] [nM]
COc1ccc(C2(C)C(=O)c3c(N4CCNCC4)cc(Cl)cc3N(CC3CCCCC3)C2=O)cc1 (centres unmarked) [Example 48, 7-Chloro-1-cyclohexylmethyl-3-(4-methoxy-phenyl)-3-methyl-5-piperazin-1-yl-1H-quinoline-2,4-dione]	127 to 128	7510	7540	5910	251	16	9010	7650	8990	8520	8660
CCN(CC)c1ccc(C2(C)C(=O)c3c(N4CCN(C)CC4)cc(Cl)cc3N(Cc3ccccc3)C2=O)cc1 (centres unmarked) [Example 5, 1-Benzyl-7-chloro-3-(4-diethylamino-phenyl)-3-methyl-5-(4-methyl-piperazin-1-yl)-1H-quinoline-2,4-dione]	204 to 206	7050	6450	7540	37.8	16.8	8750	7700	7080	7620	4660
CC1(c2ccc(O)cc2)C(=O)c2c(N3CCNCC3)cc(Cl)cc2N(CC2CCCCC2)C1=O (centres unmarked) [Example 49, 7-Chloro-1-cyclohexylmethyl-3-(4-hydroxy-phenyl)-3-methyl-5-piperazin-1-yl-1H-quinoline-2,4-dione]	175 to 176	> 10000	6300	5810	11.7	17.5	8780	8140	8680	9510	7530
CC1(c2ccc(O)cc2)C(=O)c2c(N3CCNCC3)cc(Cl)cc2N(Cc2ccc(-c3ccccc3)cc2)C1=O (centres unmarked) [Example 42, 1-Biphenyl-4-ylmethyl-7-chloro-3-(4-hydroxy-phenyl)-3-methyl-5-piperazin-1-yl-1H-quinoline-2,4-dione]	240 to 241	6850	6640	8190	164	16.1	9410	6120	9210	6730	7600
COc1ccc(C2(C)C(=O)c3c(N4CCNCC4)cc(Cl)cc3N(Cc3ccc4ccccc4n3)C2=O)cc1 (centres unmarked) [Example 44, 7-Chloro-3-(4-methoxy-phenyl)-3-methyl-5-piperazin-1-yl-1-quinolin-2-ylmethyl-1H-quinoline-2,4-dione]	200 to 201	> 1000	7530	6100	6.9	19	9270	7650	9840	7650	7690
CC1(c2ccc(O)cc2)C(=O)c2c(N3CCNCC3)cc(Cl)cc2N(Cc2ccccc2Br)C1=O (centres unmarked) [Example 36, 1-(2-Bromo-benzyl)-7-chloro-3-(4-hydroxy-phenyl)-3-methyl-5-piperazin-1-yl-1H-quinoline-2,4-dione]	264 to 265	7990	9320	6210	29	15.1	9000	6030	9610	> 10000	7160
COc1ccc(C2(C)C(=O)c3c(N4CCNCC4)cc(Cl)cc3N(Cc3ccccc3Br)C2=O)cc1 (centres unmarked) [Example 35, 1-(2-Bromo-benzyl)-7-chloro-3-(4-methoxy-phenyl)-3-methyl-5-piperazin-1-yl-1H-quinoline-2,4-dione]	150 to 151	7150	9510	7640	9.2	16.4	8880	9750	9450	7820	7720
